From patent EP0364584A1, “ANTIDOTE FOR ORGANIC PHOSPHORUS COMPOUND POISONING” (priority 1988, dated 1989)
Where two headings read alike, the source gives them in different places.

Experiments:
[1] = test system: kardiovaskuläre System und die Atmung; assay: Effect on cardiovascular system, respiration and muscle; format: in vivo
[2] = Acute toxicity, single administration, dogs; details: dog, in vivo, sc; Hunde, subkutan; read-out: LD50 (mg/kg) und deren zuverlässige Grenzen P = 0,05
Text: (§1) Die Toxizität des erfindungsgemässen Arzneimittels bei der einmaligen Einführung (die akute Toxizität) wurde an geschlechtsreifen Tieren (an Mäusen, Ratten, Katzen, Hunden) bestimmt. Die Analyse der experimentellen Angaben für Mäuse und Ratten wurde nach der Methode der Probit-Analyse nach Litchfield und Wilcoxon, und für Hunde und Katzen nach der Methode der Anreicherung der Frequenz nach Behrens durchgeführt.
(§2) Die Toxizitätsparameter LD50 wurden für Mause bei der intraperitonealen und subkutanen Einführung, für Ratten bei der subkutanen, intramuskulären und enteralen Einführung, für Katzen bei der intramuskulären Einführung und für Hunde bei der subkutanen Einführung bestimmt.

[3] = test system: Kranken mit akuten peroralen Vergiftungen mit verschiedenen phosphororganischen Insektiziden; assay: Clinical study in patients with acute oral poisoning by organophosphorus insecticides; format: in vivo, Menschen
Text: Das erfindungsgemässe Arzneimittel wurde in der Klinik an Kranken mit akuten peroralen Vergiftungen mit verschiedenen phosphororganischen Insektiziden untersucht. Insgesamt wurden 183 Menschen behandelt, die in die Klinik gelangten. Daraus befanden sich 26 Menschen in einer leichten, 48 Kranke - in einer mässigen und 75 Kranke in einer schweren Vergiftungsstufe. Das Alter der Geschädigten schwankte von 15 bis 76 Jahren. Die Zeit des Behandlungsbeginns betrug I bis 12 stunden nach der Einnahme des Insektizids und in 28 Fällen wurde die Behandlung vor der Hospitalisierung begonnen.
Die therapeutische Effektivität des erfindungsgemässen Arzneimittels wurde mit der ähnlichen Wirkung des wirksamsten bekannten Präparats TMB-4 verglichen (insgesamt 50 Menschen) .
Das erfindungsgemässe Arzneimittel wurde in Kombination mit Atropin neben aktiven Methoden der Detoxikation ausgenutzt, die die Giftentfernung aus dem Organismus bezweckten und das Durchwaschen des Magens, die Verordnung von Abführungsmitteln, Siphon- und Abführungsklystieren, die Beschleunigung der Diurese, aktive symptomatische und Erhaltungstherapie, allgemein stärkenden Behandlung, Massnahmen zur Korrektion der Störungen des säurig-alkalischen und wässrigen und Elektrolytzustands einschliessen. […]

[4] = test system: Gehirn der Tiere (Ratten); assay: Morphological and histochemical examination of the brain; format: in vivo; details: Dosen 5, 20 und 50 mg/kg; no haemorrhages
Protocol: Der Grad deren Ausgeprägtheit wird etwas höher und länger in den Gehirnstrukturen (3 Tage) bei einer Dosis des erfindungsgemässen Arzneimittels von 50 mg/kg aufrechterhalten, als bei Dosen von 5 und 20 mg/kg. Die Kapillarhyperämie wird durch keine Blutergüsse und Störungen des argyrophilen Gestells der Hirnblutgefässe begleitet. Die morphologische und histochemische Untersuchung des Rattengehirns, denen das erfindungsgemässe Arzneimittel in Dosen von 5, 20 und 50 mg/kg eingeführt wurde, gestattet, die erhaltenen Veränderungen als funktionelle einzuschätzen (die Schwankung der Aktivität der Azetylcholinesterase und der Butyrylcholinesterase, die […] Hyperämie), die von einer deutlichen Neurotropie des Arzneimittels zeugen.

[5] = molecular target: T1, Azetylcholinesterase des menschlichen Bluts (Homo sapiens, UniProt P22303); assay: Reactivation in vitro of erythrocyte cholinesterase inhibited by organophosphorus compounds (potentiometric titration); format: biochemical; details: reactivator 1.10^-4 M01/1, 25°C, pH 7,5
T1 construct: Cholinesterase des Grundgerüstes der Erythrozyten des menschlichen Bluts; from tissue; host or cells: human erythrocyte stroma (ghosts)

[6] = Acute toxicity, single administration, mice; details: mouse, in vivo, Mäuse, read-out: LD50 (mg/kg) und deren zuverlässige Grenzen P = 0,05
Text: as §1, §2

Versuchstiere = assay: Prolonged administration to test animals (blood, urine); format: in vivo
Text: Nur zu einer späteren Beobachtungsperiode (4 bis 9 Tage) wurde eine unbedeutende Erhöhung der Gesamtleukozytenzahl nachgewiesen. Am 3. Tag trat auch eine geringe Aktivierung der Blutcholinesterase auf, in den nachfolgenden Beobachtungstagen (4 bis 9 Tage) überstieg jedoch die Aktivität des Ferments das Ausgangsniveau nicht.
Die morpholigischen Untersuchungen der inneren Organe der Versuchstiere legten keine pathologischen Veränderungen im Vergleich zur Kontrolle an den Tag.

[7] = Content of the drugs in blood and brain after intramuscular administration (Askew method); format: in vivo, Ratten; details: for concentration at 2 h: 2 St., read-out: Konzentration (µg/g) 2 St. (converted); for concentration at 3 h: 3 St., read-out: Konzentration (µg/g) 3 St.; for concentration at 5 min: read-out: Konzentration (µg/g) 5 min; for concentration at 20 min: read-out: Konzentration (µg/g) 20 min (converted); for concentration at 0.5 h: 30 min, read-out: Konzentration (µg/g) 30 min; for concentration at 1 h: read-out: Konzentration (µg/g) I St.; for concentration at 10 min: IO min, read-out: Konzentration (µg/g) IO min (converted)
Protocol: Mit Hilfe der Methode von Askew (1956) wurde in der Dynamik der Gehalt des erfindungsgemäßen Arzneimittels im Blut und Gehirn der Tiere untersucht. Die Untersuchungen wurden im Vergleich zum bekannten Präparak TMB-4 vorgenommen. Die Geschwindigkeit des Eindringens beider Präparate ins Blut und deren Konzentration wurden bei der-intramuskulären Einführung in Dosen von 20 ..und 50 mg/kg und der Gehirnspiegel - in einer Dosis von 50 mg/kg bestimmt. […]
Es wurde festgestellt, daß die Präparate schnell (nach 5 min) von der Einführungsstelle ins Blut eindringen, dabei wurde unabhängig von der Prüfdosis der Präparate deren Maximalgehalt im Blut 20 min nach der Einführung beobachtet, zwar erhöhte die Vergrößerung der Dosis der Präparate bis 50 mg/kg wesentlich deren Konzentrationsniveau während der ganzen Beobachtungsfrist.
Die im Vergleich zu TMB-4 durchgeführten Untersuchungen haben ergeben, dass während der ersten Stunde der Blutgehalt und das Anwachsen der Konzentrationen beider Präparate gleich waren. […] Die Untersuchungsergebnisse sind in der Tabelle 3 angeführt.
Nach den Ergebnissen der durchgeführten Untersuchungen wurde festgestellt, dass das erfindungsgemässe Arz- neimittel bei der intramuskulären Einführung schnell ins Blut und Gehirn des Tieres eindringt und zum Unterschied von TMB-4 eine längere Zeit im 3lutstrom zirkuliert und von 5 min an bis 4 Stunden Beobachtung im Gehirn in bedeutend grösseren Mengen enthalten ist.

[8] = rat, blood, im, Blut, Dosis 20 mg/kg intramuskulär, Ratten
[9] = rat, blood, im, Blut, Dosis 50 mg/kg intramuskulär, Ratten
[10] = rat, brain, im, Gehirn, Dosis 50 mg/kg intramuskulär, Ratten

T1 sequence (P22303 other isoform, or with tags, fused parts or gaps): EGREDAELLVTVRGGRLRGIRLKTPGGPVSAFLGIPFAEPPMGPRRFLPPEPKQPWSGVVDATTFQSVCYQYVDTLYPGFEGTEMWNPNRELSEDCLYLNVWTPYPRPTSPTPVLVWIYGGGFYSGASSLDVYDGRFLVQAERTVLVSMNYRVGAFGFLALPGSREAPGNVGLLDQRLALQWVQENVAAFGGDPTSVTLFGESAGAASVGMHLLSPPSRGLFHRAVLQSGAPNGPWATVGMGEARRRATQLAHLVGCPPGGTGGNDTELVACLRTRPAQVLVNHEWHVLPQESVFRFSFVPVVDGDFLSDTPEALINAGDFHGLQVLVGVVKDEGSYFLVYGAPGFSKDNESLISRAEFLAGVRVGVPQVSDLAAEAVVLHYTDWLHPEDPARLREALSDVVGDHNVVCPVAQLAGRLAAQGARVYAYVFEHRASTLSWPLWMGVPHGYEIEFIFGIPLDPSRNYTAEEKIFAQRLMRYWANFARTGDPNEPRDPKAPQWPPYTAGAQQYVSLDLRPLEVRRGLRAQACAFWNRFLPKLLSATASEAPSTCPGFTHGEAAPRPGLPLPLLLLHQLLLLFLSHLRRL

In the case of `C=CC[n+]1ccccc1C=NO` [das erfindungsgemässe Arzneimittel, N-Allyl-2-pyridinaldoxiinbromid], the “myotrope Wirkung” value ([1]; in vivo) is reported as “keine myotrope Wirkung”, the “arterieller Blutdruck” value ([1]; intravenöse Einführung (12 bis 15 mg/kg)) is reported as “setzte unbedeutend für eine kürzere Zeit den arteriellen Blutdruck herab” and the “Einfluss auf das kardiovaskuläre System und die Atmung” value ([1]; subkutane Einführung in hohen Dosen (10 und 20 mg/kg)) is reported as “keinen Einfluss”. For the same compound, the LD50 [2] was 112 mg/kg, the “Nebenerscheinungen und Kontraindikationen” value ([3]; Einzeldosis 0,075 g, Kurdosis 0,4 bis 1,6 g) was “keine Nebenerscheinungen und Kontraindikationen” and the “Kennziffer der Funktion der Leber und der Stoffwechselprozesse” value ([3]; Eiweissfraktion, Bilirubin, Transaminasenaktivität, Blutzucker, Elektrolyt- und Gaswechsel) was “zu deren Normalisierung beiträgt”. For the same compound, the “Histochemische Untersuchungen des Gehirns” value [4] was “allgemeine unbedeutende Kapillarhyperämie”, the activity at 100 µM ([5]; 0.5 h, pH 7, inhibited with O,O-Dimethyl-(2,2,2-trichlor-1-oxyäthyl) phosphonat, 0,5 h, read-out: Aktivität der Azetylcholinesterase in % (Reaktivationszeit in Stunden) 0,5) was 53.6% and the activity at 100 µM ([5]; 0.5 h, pH 7, inhibited with O,O-Dimethyl-S-(1,2-dikarbäthoxyäthyl)-dithiophosphat, 0,5 h, read-out: Aktivität der Azetylcholinesterase in % (Reaktivationszeit in Stunden) 0,5) was 48.1%. The activity at 100 µM ([5]; 1 h, pH 7, inhibited with O,O-Dimethyl-(2,2,2-trichlor-1-oxyäthyl) phosphonat, 1 h, read-out: Aktivität der Azetylcholinesterase in % (Reaktivationszeit in Stunden) 1) was 72.2%, the activity at 100 µM ([5]; 1 h, pH 7, inhibited with O,O-Dimethyl-S-(1,2-dikarbäthoxyäthyl)-dithiophosphat, 1 h, read-out: Aktivität der Azetylcholinesterase in % (Reaktivationszeit in Stunden) 1) was 75% and the activity at 100 µM ([5]; 2 h, pH 7, inhibited with O,O-Dimethyl-(2,2,2-trichlor-1-oxyäthyl) phosphonat, 2 h, read-out: Aktivität der Azetylcholinesterase in % (Reaktivationszeit in Stunden) 2) was 72.3%. It also gave an activity at 100 µM ([5]; 2 h, pH 7, inhibited with O,O-Dimethyl-S-(1,2-dikarbäthoxyäthyl)-dithiophosphat, 2 h, read-out: Aktivität der Azetylcholinesterase in % (Reaktivationszeit in Stunden) 2) of 78.1%, an LD50 ([6]; ip, intraperitoneal) of 64 mg/kg and an LD50 ([6]; sc, subkutan) of 115 mg/kg. The “Einfluss auf den Bestand des peripheren Bluts” value (Versuchstiere; dauernde Anwendung, slight rise of leukocytes at 4 bis 9 Tage) was “keinen merklichen Einfluss”, the Harnbestand (Versuchstiere; längere Einführung) was “veränderte nicht den Harnbestand” and the “Konzentration (µg/g) I St.” value ([7]; Blut, Dosis 50 mg/kg intramuskulär, I St., Ratten) was “IO,I”. The “Konzentrationsniveau im Blut im Vergleich zu TMB-4” value ([7]; late time points (printed: 3 und 1 Stunden)) was “ungefähr um das Doppelte”, the concentration at 2 h [7, 8] was 2.3 µg/g and the concentration at 3 h [7, 8] was 0.92 µg/g. The concentration at 5 min [7, 8] was 2.95 µg/g, the concentration at 20 min [7, 8] was 5.16 µg/g and the concentration at 0.5 h [7, 8] was 4.7 µg/g. It also gave a concentration at 1 h ([7]; rat, blood, im, Blut, Dosis 20 mg/kg intramuskulär, I St., Ratten) of 4.4 µg/g, a concentration at 10 min [7, 8] of 4.95 µg/g and a concentration at 2 h [7, 9] of 4.6 µg/g. The concentration at 3 h [7, 9] was 3.6 µg/g, the concentration at 5 min [7, 9] was 16.2 µg/g and the concentration at 20 min [7, 9] was 18 µg/g. The concentration at 0.5 h [7, 9] was 12.7 µg/g, the concentration at 10 min [7, 9] was 19 µg/g and the Tmax ([7]; rat, blood, im, intramuskuläre Einführung, summary statement, read-out: Maximalniveau erreicht nach) was 20 to 30 min. It also gave a concentration at 2 h [7, 10] of 1.12 µg/g, a concentration at 3 h [7, 10] of 0.64 µg/g and a concentration at 5 min [7, 10] of 2.64 µg/g. The concentration at 20 min [7, 10] was 4 µg/g, the concentration at 0.5 h [7, 10] was 3.75 µg/g and the concentration at 1 h ([7]; rat, brain, im, Gehirn, Dosis 50 mg/kg intramuskulär, I St., Ratten) was 2.06 µg/g. For the same compound, the concentration at 10 min [7, 10] was 5.65 µg/g.
